Assay results from patent US8574563B2 (Bristol-Myers Squibb Company, priority 2006, dated 2013).

System: HCV 1b-377-neo replicon cells
Assay: HCV replicon assay, HCV 1b-377-neo replicon cells (1b FRET)
Assay type: cell-based, Hepatitis C virus genotype 1b
Conditions: Hepatitis C virus, HCV 1b-377-neo replicon cells; HCV 1b genotype; read-out: EC50 range against HCV 1b (Table 2, Range)
Summary of the method: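 Compounds were tested in genotype 1b subgenomic replicon cells carrying a neomycin marker, alongside a matched replicon line with an NS5A Y2065H substitution that confers resistance to a reference NS5A inhibitor.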

## CC(C)[C@H](NC(=O)OCCF)C(=O)N1CCC[C@H]1c1ncc(-c2ccc(-c3ccc(-c4cnc([C@@H]5CCCN5C(=O)[C@@H](NC(=O)OCCF)C(C)C)[nH]4)cc3)cc2)[nH]1 [OL-3, 2-fluoroethyl ((1S)-1-(((2S)-2-(4-(4′-(2-((2S)-1-((2S)-2-(((2-fluoroethoxy)carbonyl)amino)-3-methylbutanoyl)-2-pyrrolidinyl)-1H-imidazol-4-yl)-4-biphenylyl)-1H-imidazol-2-yl)-1-pyrrolidinyl)carbonyl)-2-methylpropyl)carbamate]
  EC50: 1 to 99 nM

## COC(=O)N[C@@H](Cc1ccc(O)cc1)C(=O)N1CCC[C@H]1c1ncc(-c2ccc(-c3ccc(-c4cnc([C@@H]5CCCN5C(=O)[C@@H](NC(=O)OC)C(C)C)[nH]4)cc3)cc2)[nH]1 [cj-111, methyl ((1S)-1-(4-hydroxybenzyl)-2-((2S)-2-(5-(4′-(2-((2S)-1-((2S)-2-((methoxycarbonyl)amino)-3-methylbutanoyl)-2-pyrrolidinyl)-1H-imidazol-5-yl)-4-biphenylyl)-1H-imidazol-2-yl)-1-pyrrolidinyl)-2-oxoethyl)carbamate]
  EC50: 0.001 to 0.999 nM

## CCN(CC)[C@@H](C(=O)N1CC(F)(F)C[C@H]1c1nc(-c2ccc(-c3ccc(-c4cnc([C@@H]5CCCN5C(=O)[C@@H](c5ccccc5)N(CC)CC)[nH]4)c(F)c3)cc2)c[nH]1)c1ccccc1 [Example J14e.1, (1R)-2-((2S)-2-(4-(4′-(2-((2S)-1-((2R)-2-(diethylamino)-2-phenylacetyl)-4,4-difluoro-2-pyrrolidinyl)-1H-imidazol-4-yl)-3-fluoro-4-biphenylyl)-1H-imidazol-2-yl)-1-pyrrolidinyl)-N,N-diethyl-2-oxo-1-phenylethanamine]
  EC50: 0.001 to 0.999 nM

## COC(=O)N[C@@H](C(=O)N1CCC[C@H]1c1ncc(-c2ccc(-c3ccc(-c4cnc([C@@H]5CCCN5C(=O)Cc5cccnc5)[nH]4)cn3)cc2)[nH]1)c1ccccc1 [Example 143, methyl ((1R)-2-oxo-1-phenyl-2-((2S)-2-(5-(4-(5-(2-((2S)-1-(3-pyridinylacetyl)-2-pyrrolidinyl)-1H-imidazol-5-yl)-2-pyridinyl)phenyl)-1H-imidazol-2-yl)-1-pyrrolidinyl)ethyl)carbamate]
  EC50: 0.001 to 0.999 nM

## CCCN(CCC)[C@H](C)C(=O)N1CCC[C@H]1c1ncc(-c2ccc(-c3ccc(-c4cnc([C@@H]5CCCN5C(=O)[C@@H](C)N(CCC)CCC)[nH]4)cc3)cc2)[nH]1 [Example M13, N,N′-(4,4′-biphenyldiylbis(1H-imidazole-5,2-diyl(2S)-2,1-pyrrolidinediyl((2R)-1-oxo-1,2-propanediyl)))bis(N-propyl-1-propanamine)]
  EC50: 100 to 999 nM

## CCN(CC)[C@@H](C(=O)N1CCC[C@H]1c1ncc(-c2ccc(-c3ccc(-c4cnc([C@@H]5CCCN5C(=O)[C@@H](Nc5ncccn5)C(C)C)[nH]4)cc3)cc2)[nH]1)c1ccccc1 [cj-11c, N-((1S)-1-(((2S)-2-(5-(4′-(2-((2S)-1-((2R)-2-(diethylamino)-2-phenylacetyl)-2-pyrrolidinyl)-1H-imidazol-5-yl)-4-biphenylyl)-1H-imidazol-2-yl)-1-pyrrolidinyl)carbonyl)-2-methylpropyl)-2-pyrimidinamine]
  EC50: 0.001 to 0.999 nM

## CC(C)(C)OC(=O)N[C@H]1CC[C@@H](C(=O)N2CCC[C@H]2c2ncc(-c3ccc(-c4ccc(-c5cnc([C@@H]6CCCN6C(=O)[C@@H](c6ccccc6)N6CCCCC6)[nH]5)cc4)cc3)[nH]2)CC1 [Example 107-13, tert-butyl (cis-4-(((2S)-2-(5-(4′-(2-((2S)-1-((2R)-2-phenyl-2-(1-piperidinyl)acetyl)-2-pyrrolidinyl)-1H-imidazol-5-yl)-4-biphenylyl)-1H-imidazol-2-yl)-1-pyrrolidinyl)carbonyl)cyclohexyl) carbamate]
  EC50: 0.001 to 0.999 nM

## COC(=O)C[C@H](NC(=O)OC)C(=O)N1CCC[C@H]1c1ncc(-c2ccc(-c3ccc(-c4cnc([C@@H]5CCCN5C(=O)[C@@H](NC(=O)OC)C(C)C)[nH]4)cc3)cc2)[nH]1 [Example M110, methyl (3S)-3-((methoxycarbonyl)amino)-4-((2S)-2-(5-(4′-(2-((2S)-1-(N-(methoxycarbonyl)-L-valyl)-2-pyrrolidinyl)-1H-imidazol-5-yl)-4-biphenylyl)-1H-imidazol-2-yl)-1-pyrrolidinyl)-4-oxobutanoate]
  EC50: 1 to 99 nM

## COC(=O)N[C@H](C(=O)N1CCC[C@H]1c1nc(-c2cnc(-c3ccc(-c4cnc([C@@H]5CCCN5C(=O)[C@@H](NC(=O)OC)C5CC5)[nH]4)cc3)nc2)c[nH]1)C1CC1 [Example D75, methyl ((1S)-1-cyclopropyl-2-((2S)-2-(5-(2-(4-(2-((2S)-1-((2S)-2-cyclopropyl-2-((methoxycarbonyl)amino)acetyl)-2-pyrrolidinyl)-1H-imidazol-5-yl)phenyl)-5-pyrimidinyl)-1H-imidazol-2-yl)-1-pyrrolidinyl)-2-oxoethyl)carbamate]
  EC50: 0.001 to 0.999 nM

## CNC(=O)c1nc([C@@H]2CCCN2C(=O)[C@@H](c2ccccc2)N2CCCCC2)[nH]c1-c1ccc(-c2ccc(-c3cnc([C@@H]4CCCN4C(=O)[C@@H](c4ccccc4)N4CCCCC4)[nH]3)cc2)cc1 [Example J27, N-methyl-2-((2S)-1-((2R)-2-phenyl-2-(1-piperidinyl)acetyl)-2-pyrrolidinyl)-5-(4′-(2-((2S)-1-((2R)-2-phenyl-2-(1-piperidinyl)acetyl)-2-pyrrolidinyl)-1H-imidazol-5-yl)-4-biphenylyl)-1H-imidazole-4-carboxamide]
  EC50: 0.001 to 0.999 nM

## CCN(CC)[C@H](C)C(=O)N1CCC[C@H]1c1ncc(-c2ccc(-c3ccc(-c4cnc([C@@H]5CCCN5C(=O)[C@H](NC(=O)OC)c5ccccc5)[nH]4)c(F)c3)cc2F)[nH]1 [Example D63, methyl ((1R)-2-((2S)-2-(5-(4′-(2-((2S)-1-(N,N-diethyl-D-alanyl)-2-pyrrolidinyl)-1H-imidazol-5-yl)-3,3′-difluoro-4-biphenylyl)-1H-imidazol-2-yl)-1-pyrrolidinyl)-2-oxo-1-phenylethyl)carbamate]
  EC50: 0.001 to 0.999 nM

## COC(=O)N[C@H](C)C(=O)N1CCC[C@H]1c1ncc(-c2ccc(-c3ccc(-c4cnc([C@@H]5CCCN5C(=O)[C@@H](C)NC(=O)OC)[nH]4)cc3)cc2)[nH]1 [Example M18, methyl ((1R)-2-((2S)-2-(5-(4′-(2-((2S)-1-(N-(methoxycarbonyl)-D-alanyl)-2-pyrrolidinyl)-1H-imidazol-5-yl)-4-biphenylyl)-1H-imidazol-2-yl)-1-pyrrolidinyl)-1-methyl-2-oxoethyl)carbamate]
  EC50: 1000 to 10000 nM

## O=C(N[C@@H](C(=O)N1CCC[C@H]1c1ncc(-c2ccc(-c3ccc(-c4cnc([C@@H]5CCCN5C(=O)[C@H]5CCCO5)[nH]4)cc3)cc2)[nH]1)c1ccccc1)[C@H]1CCCO1 [Example 119, (2R)-N-((1R)-2-oxo-1-phenyl-2-((2S)-2-(5-(4′-(2-((2S)-1-((2R)-tetrahydro-2-furanylcarbonyl)-2-pyrrolidinyl)-1H-imidazol-5-yl)-4-biphenylyl)-1H-imidazol-2-yl)-1-pyrrolidinyl)ethyl)tetrahydro-2-furancarboxamide]
  EC50: 0.001 to 0.999 nM
